Test results: patent publication US20050239152A1, “Continuous-flow enzyme assay” (Kiadis B.V., priority 2002, published 2005)

Tests used:
[1] = target: T1, Cathepsin B (E.C. 3.4.22.1, from bovine spleen) (Bos taurus, UniProt P07688); test: LC-continuous-flow (LC-CF) ESI-TOF-MS cathepsin B assay, substrate Z-FR-AMC; conditions: LC-CF system, FIG. 8; mixture injected, E64 40 μM, CA-074 90 μM
Description: For the HPLC screening, solutions were prepared as described herein-above and filled in superloops. Used concentrations were 30 nM cathepsin B and 6 μM internal standard 1, and 50 μM Z-FR-AMC and 6 μM internal standard 2, for superloop 1 and superloop 2, respectively. Injected inhibitors: E64 and CA074, which were in mixture injected (E64: 40 μM; CA-074: 90 μM). […] Compounds injected via an autoinjector were separated by the LC-column, using a binary gradient system consisting of carrier solution and methanol. In order to reduce the amount of methanol that was necessary for separation, a makeup solution was added to the column effluent, resulting in a constant methanol concentration of 10%. Decreasing the concentration of methanol was necessary to prevent enzyme degradation. […] In the LC-CF system, both the enzyme solution and the substrate solution were delivered at a flow rate of 50 μL/min, resulting in a total flow rate of 100 μL/min into the mass spectrometer.
The RP-separation was performed by a binary gradient system, using water and methanol. The organic modifier, however, decreases the activity of enzymes. For this reason, a makeup flow was added after the LC-column (see FIG. 5) to reduce the concentration of methanol. […] This flow was used as the carrier solvent that was pumped into the continuous-flow system. […]

[2] = target: T1, Cathepsin B (E.C. 3.4.22.1, from bovine spleen); conditions: FI-CF system, FIG. 7; antipain compared with E64
Description: The enzymatic assay was performed in a continuous-flow ESI-TOF-MS system where the enzyme cathepsin B and the substrate Z-FR-AMC were subsequently added to the carrier solution of a flow injection system simulating the effluent of an LC column. As a consequence, cathepsin B was continuously incubated with Z-FR-AMC, resulting in a continuous supply of converted substrate. The product was pumped into the mass spectrometer and monitored. Various compounds were injected into the continuous-flow system, incubated with the enzyme in a reaction coil and subsequently pumped into the mass spectrometer. […]
More in detail, samples were analyzed by two different continuous-flow (CF) systems, which both consisted of a homogeneous bioassay coupled to a Micromass (Wythenshawe, UK) Q-Tof micro mass spectrometer. […] The amount of formed product was determined by MS, which was equipped with a Micromass Z-spray electrospray ionization (ESI) source. […]
Carrier solution (20 μL/min) was mixed continuously with cathepsin B solution (10 μL/min) in reaction coil A for 40 sec, and carrier/cathepsin B solution with Z-FR-AMC solution (30 μL/min) in reaction coil B for 45 sec. The resulting flow (40 μL/min) coming out of reaction coil B was pumped into the mass spectrometer, where the amount of formed product was directly monitored by ESI-TOF-MS. […]

negative peak in product mass trace after LC separation [1]: caused by inhibition
injected concentration giving more or less the same area of negative peaks [2]: 0.50 µM
Compound: CC(C)C[C@H](NC(=O)[C@H]1O[C@@H]1C(=O)O)C(=O)NCCCCN=C(N)N (relative stereo) [E64, trans-epoxysuccinyl-L-leucylamido-(4-guanidino)butane]
